Several values for one entry are separate records, joined by “and”; a condition that tells them apart may be missing. Identical values can stand only once.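 Cells were grown in 96-well plates and exposed to each compound for 48 hours at five concentrations; endpoints were interpolated linearly between bracketing concentrations, or set to the highest concentration if not reached. At the GI50, growth is halved. TGI is the concentration that stops growth completely.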
The compounds below were run on MDA-MB-468 breast (assay: NCI tumour cell line growth inhibition, 48 h).
For `CC/C(=C(/c1ccc(O)cc1)c1ccc(OCCNC)cc1)c1ccccc1`, the GI50 was 1.42 µM and the TGI was 2.96 µM.
`O=c1[nH]ncc(Br)c1Br` gave a GI50 of 1.27 µM and a TGI of 3.21 µM.
`O=C1CCCCN1CCCCC#Cc1ccccc1C#Cc1ccc([N+](=O)[O-])cc1` gave a GI50 of 4.58 µM and a TGI of 26.1 µM.
`CC1=CC(=Nc2ccc(N(CCCl)CCCl)cc2)C=C(C)C1=O` showed a GI50 of 0.191 µM and a TGI of 0.822 µM.
Work on `N#CSc1c[nH]c2cccc(/C=C/C(=O)/C=C(/C=C/c3cccc4[nH]cc(SC#N)c34)OB(F)F)c12` yielded a GI50 of 0.3 µM and a TGI of 1.19 µM.
For `CC[C@@H]1C(=O)N(C)c2cnc(Nc3ccc(C(=O)NC4CCN(C)CC4)cc3OC)nc2N1C1CCCC1`, the GI50 was 0.00135 µM and < 0.01 µM and the TGI was 0.0164 µM and < 0.0183 µM.
`COC(=O)[C@]12CC[C@@H](C)[C@H](C)[C@@H]1C1=CC[C@@H]3[C@@]4(C)C/C(=N\O)[C@H](O)[C@@]5(C)COC(=C45)C[C@@]3(C)[C@]1(C)CC2` was tested, and the GI50 was 6.22 µM and the TGI was 20.6 µM.
In the case of `Oc1ccc(CN2CCC(N3CCCCC3)CC2)c2cccnc12`, the GI50 is reported as 25.2 µM and the TGI is reported as 73.9 µM.
`CC[C@]1(O)C[C@@H]2CN(CCc3c([nH]c4ccccc34)[C@@](C(=O)OC)(c3cc4c(cc3OC)N(C)[C@H]3[C@@](O)(C(=O)OC)[C@H](OC(C)=O)[C@]5(CC)C=CCN6CC[C@]43[C@@H]65)C2)C1` showed a GI50 of less than 0.01 µM and a TGI of less than 0.01 µM.
For `N#Cc1c(-c2ccc(F)cc2)nc(N/N=C/c2c[nH]c3ccccc23)nc1N1CCOCC1`, the GI50 was 3.46 µM and the TGI was 22.7 µM.
In the case of `Oc1ccc2ccccc2c1N=Nc1nccs1`, the GI50 is reported as 1.64 µM and the TGI is reported as 6.16 µM.
With `O=C(N/N=C/c1ccccc1O)c1ccccc1Nc1ccnc(C(F)(F)F)c1` the GI50 was 0.272 µM and the TGI was 9.14 µM.
For `Oc1c(CN2CCC(N3CCCCC3)CC2)cc(Cc2cc(CN3CCC(N4CCCCC4)CC3)c(O)c3ncccc23)c2cccnc12`, the GI50 was 1.15 µM and the TGI was 2.88 µM.
`OCc1c[nH]c2ccccc12` showed a GI50 of 25.1 µM and a TGI of 75 µM.
Work on `COc1cc(C2NC(=O)c3ccccc3N2)ccc1OCCCCCOc1c(OC)cc(C2=NOC(c3cc(OC)c(OC)c(OC)c3)C2)cc1OC` (stereo not given) yielded a GI50 of 0.0805 µM and a TGI of 97.3 µM.
`CC(C)(C)OC(=O)N1CCc2c(sc3ncnc(N/N=C/c4cccc5ccccc45)c23)C1` showed a GI50 of 4.21 µM and a TGI of 28.1 µM.
`COc1cc(C2=NOC(c3cc(OC)c(OC)c(OC)c3)C2)ccc1OCCCCOc1cc2c(cc1OC)C(=O)N1CCC[C@H]1C=N2` (stereo not given in full) gave a GI50 of 0.225 µM and a TGI of 0.593 µM.
`N#Cc1ccc(O)c(C2=NCC(c3cccc(Oc4ccccc4)c3)O2)c1` (stereo not given) showed a GI50 of 0.841 µM and a TGI of 7.07 µM.
Compound `Oc1ccc(NCc2nc3ccccc3[nH]2)cc1` has a GI50 of 88.4 µM and a TGI greater than 100 µM.
In the case of `C=CCCCCCCCCC(=O)[O][Sn]([CH2]CCC)([CH2]CCC)[CH2]CCC`, the GI50 is reported as 0.135 µM and the TGI is reported as 0.278 µM.
For `NC(=O)c1ccc(I)c(N)c1`, the GI50 was greater than 100 µM and the TGI was greater than 100 µM.
`O=C1c2cc(Cl)ccc2S(=O)(=O)c2c(NCCCNCCO)nc3ccccc3c21` showed a GI50 of 1.06 µM and a TGI of 2.95 µM.
In the case of `CN1CCN(C(=O)OCc2nc3c(N4CCOCC4)nc(Cl)nc3n2C)CC1`, the GI50 is reported as 0.923 µM and the TGI is reported as 2.33 µM.
For `CCN(CC)c1ccc(/C=C/c2ccc3cc(C)ccc3[n+]2CC)cc1`, the GI50 was 0.0205 µM and the TGI was 0.464 µM.
For `O=C(/C(Br)=C/c1ccccc1)c1ccccc1`, the GI50 was 1.12 µM and the TGI was 2.56 µM.
`C=C1C(=O)O[C@H]2[C@H]1CC/C(Cn1cc(-c3ccc(OC)cc3)nn1)=C\CC[C@@]1(C)O[C@@H]21` gave a GI50 of 0.892 µM and a TGI of 2.56 µM.
`CCN(CC)CCOc1ccc(/C(=C(\Cl)c2ccccc2)c2ccccc2)cc1` was tested, and the GI50 was 1.36 µM and 1.57 µM and the TGI was 5.97 µM and 3.05 µM.
Compound `CS(=O)(=O)Nc1cc(-c2ccc3ncc(C#N)c(NCc4cccc(F)c4)c3c2)cnc1Cl` has a GI50 of 0.102 µM and a TGI of 0.926 µM.
For `CC(=O)OC[C@]1(C)C=C2C(=O)[C@](C)(O)C3(CC3)C(C)=C2[C@H]1O`, the GI50 was 0.0447 µM and the TGI was 0.196 µM.
With `CC1(C)OC2[C@@H](CNC(=O)NC(=O)NC(=O)CI)O[C@@H](n3cnc4c(NC(=O)Nc5ccccc5)ncnc43)[C@H]2O1` (stereo not given in full) the GI50 was 6.78 µM and the TGI was 14.8 µM.
`C[C@@H]1OC(O)[C@@H](F)[C@H](O)[C@@H]1O` (stereo not given in full) was tested, and the GI50 was greater than 100 µM and the TGI was greater than 100 µM.
In the case of `C=C1C(=O)O[C@H]2[C@H]1CC/C(COC(=O)c1ccc3ccccc3c1)=C\CC[C@@]1(C)O[C@@H]21`, the GI50 is reported as 0.784 µM and the TGI is reported as 2.61 µM.
`COc1ccc(-c2cnnc3c(-c4cccc(C(F)(F)F)c4)cnn23)cc1` gave a GI50 of 5.39 µM and a TGI greater than 100 µM.
Compound `C=CC(=O)N1CC2(CCN(c3nc(OC4CCN(CCCOC)CC4)nc4c(OCC(F)(F)F)c(-c5c(C)ccc6[nH]ncc56)c(C5CC5)cc34)CC2)C1` has a GI50 of 1.59 µM and a TGI of 3.29 µM.
With `FC(F)(F)c1cccc(Nc2nccc(-c3cnn4nc(-c5ccccc5)ccc34)n2)c1` the GI50 was 7.42 µM and the TGI was greater than 23.5 µM.
`COc1cc2c(c(O)c1Br)C(=O)c1c(O)cc(C[C@H](C)O)cc1[C@H]2[C@H]1c2cc(C[C@H](C)O)cc(O)c2C(=O)c2c1cc(OC)c(Br)c2O` was tested, and the GI50 was 13.3 µM and 16.5 µM and the TGI was 36 µM and 41.9 µM.
Compound `CCOc1cc2c(Cl)ncnc2c(OCC)c1OCC` has a GI50 of 0.781 µM and a TGI of 3.56 µM.
`CCCn1cnc2c(SCc3ccccc3Cl)nc(N)nc21` showed a GI50 of 13.4 µM and a TGI of 48.4 µM.
Work on `Cc1ccc(NC(=O)c2cccc(N(C)C)c2)cc1NC(=O)c1ccc(O)cc1` yielded a GI50 greater than 57.2 µM and a TGI greater than 100 µM.
Compound `O=C1Nc2c(C(F)(F)F)cccc2[C@]1(c1ccc(O)cc1)c1ccc(OC(F)(F)F)cc1` has a GI50 of 6.48 µM and a TGI of 21.4 µM.

Source: PubChem BioAssay (NCI)
